target: T1, Kir3.1/3.4 (Rattus norvegicus, UniProt P48548+P63251); experiment: Kir3.1/3.4 Electrophysiology Method (manual whole-cell patch clamp); format: cell-based; details: Electrophysiology Method (TABLE 1)
T1 construct: expressed in transfected cells
T1 sequence (P63251 1-501): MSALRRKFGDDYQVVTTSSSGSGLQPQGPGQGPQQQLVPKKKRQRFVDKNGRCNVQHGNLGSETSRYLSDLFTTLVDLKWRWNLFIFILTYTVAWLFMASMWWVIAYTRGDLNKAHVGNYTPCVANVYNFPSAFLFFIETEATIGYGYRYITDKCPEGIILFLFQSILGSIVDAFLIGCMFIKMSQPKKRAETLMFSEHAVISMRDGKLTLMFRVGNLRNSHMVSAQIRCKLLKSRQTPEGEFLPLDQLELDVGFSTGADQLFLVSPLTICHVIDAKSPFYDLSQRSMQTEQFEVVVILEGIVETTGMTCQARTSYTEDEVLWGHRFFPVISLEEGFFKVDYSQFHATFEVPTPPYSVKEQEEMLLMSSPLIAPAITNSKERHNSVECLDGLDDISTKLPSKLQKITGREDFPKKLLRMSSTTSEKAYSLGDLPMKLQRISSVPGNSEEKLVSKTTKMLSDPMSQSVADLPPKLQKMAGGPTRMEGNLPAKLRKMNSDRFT
T1 sequence (P48548 1-419): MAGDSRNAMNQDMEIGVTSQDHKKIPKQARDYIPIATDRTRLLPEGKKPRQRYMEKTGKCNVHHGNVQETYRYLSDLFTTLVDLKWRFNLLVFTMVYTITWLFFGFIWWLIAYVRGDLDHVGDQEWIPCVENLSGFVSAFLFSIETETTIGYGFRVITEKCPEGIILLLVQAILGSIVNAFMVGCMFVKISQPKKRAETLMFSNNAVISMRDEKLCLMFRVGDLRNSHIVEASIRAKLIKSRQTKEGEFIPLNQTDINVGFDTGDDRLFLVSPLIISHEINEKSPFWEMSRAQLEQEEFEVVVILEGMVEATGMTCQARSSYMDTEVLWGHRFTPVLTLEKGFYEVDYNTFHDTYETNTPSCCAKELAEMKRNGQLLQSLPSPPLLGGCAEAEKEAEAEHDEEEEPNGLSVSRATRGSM
In short: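 Manual whole-cell patch clamp on HEK293 cells stably expressing rat Kir3.1/3.4, with GTPγS in the pipette. Cells were held at −60 mV and stepped to +60 mV, then ramped to −140 mV every 10 s. Steady-state inhibition at −140 mV was measured after subtracting leak recorded in zero-K+ bath.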

First: COCCN(CCOC)CC1CCN(c2ncnc3scc(-c4ccccc4)c23)CC1 [Example 53, 2-methoxy-N-(2-methoxyethyl)-N-[[1-(5-phenylthieno[2,3-d]pyrimidin-4-yl)-4-piperidyl]methyl]ethanamine]
Second: CN(C)C1CCN(c2nc(N3CCC(O)C3)nc3scc(-c4ccccc4)c23)CC1 (stereo not shown) [Example 188]
The IC50 of the first is lower: less than 500 nM for the first, 500 to 3000 nM for the second. The first is the more potent here.

Cc1sc2ncnc(N3CCC(CN4CCCC(N(C)C)C4)CC3)c2c1C (stereo not shown) [Example 234] and CN1CCC(N(C)CC2CCN(c3nc(N4CCC[C@@H]4C(N)=O)nc4scc(-c5ccccc5)c34)CC2)C1 (stereo partly shown) [Example 229] cannot be ordered by IC50: less than 500 nM for the first, less than 500 nM for the second.

Cc1sc2ncnc(N3CCC(CNC4CCN(C)CC4)CC3)c2c1C [Example 232] and NCCNCC1CCN(c2ncnc3scc(-c4ccccc4)c23)CC1 [Example 63, N′-[[1-(5-phenylthieno[2,3-d]pyrimidin-4-yl)-4-piperidyl]methyl]ethane-1,2-diamine] cannot be ordered by IC50: less than 500 nM for the first, less than 500 nM for the second.

NC(=O)C1CCCN1CC1CCN(c2ncnc3scc(-c4ccccc4)c23)CC1 (stereo not shown) [Example 247] and Fc1ccc(-c2csc3nc(N4CCC(COCCN5CCCC5)CC4)ncc23)cc1 [Example 152] cannot be ordered by IC50: less than 500 nM for the first, less than 500 nM for the second.

CC(C)NC(=O)c1sc2ncnc(N3C4CCC3CC(COCCN3CCCC3)C4)c2c1-c1ccccc1 (stereo not shown) [Example 357] and c1nc(N2CCC(COCCN3CCCC3)CC2)c2c(-c3ccoc3)csc2n1 [Example 315] cannot be ordered by IC50: less than 500 nM for the first, less than 500 nM for the second.

First: O=C1NCCN1c1sc2ncnc(N3CCC(COCCN4CCCC4)CC3)c2c1-c1ccccc1 [Example 368]
Second: O=C1CN(CCOCC2CCN(c3ncnc4scc(-c5ccccc5)c34)CC2)CCN1 [Example 28, 4-[2-[[1-(5-phenylthieno[2,3-d]pyrimidin-4-yl)-4-piperidyl]methoxy]ethyl]piperazin-2-one]
The IC50 of the first is lower: less than 500 nM for the first, 500 to 3000 nM for the second. The first is the more potent here.

c1ccc(-c2csc3nc(N4CCC(COCCN5CCCC5)CC4)nc(N4CCOCC4)c23)cc1 [Example 276] and c1ccc(-c2csc3ncnc(N4CCC(CNCc5cccs5)CC4)c23)cc1 [Example 69, N-[[1-(5-phenylthieno[2,3-d]pyrimidin-4-yl)-4-piperidyl]methyl]-1-(2-thienyl)methanamine] cannot be ordered by IC50: less than 500 nM for the first, less than 500 nM for the second.

“5-phenyl-thieno[2,3-d]pyrimidine [Example 160]” and N#Cc1sc2nccc(N3CCC(COCCN4CCCC4)CC3)c2c1-c1ccccc1 [Example 144] cannot be ordered by IC50: less than 500 nM for the first, less than 500 nM for the second.

Fc1ccc(C2CCN(CC3CCN(c4ncnc5scc(-c6ccccc6)c45)CC3)C2)cc1 (stereo not shown) [Example 70, 4-[4-[[3-(4-fluorophenyl)pyrrolidin-1-yl]methyl]-1-piperidyl]-5-phenyl-thieno[2,3-d]pyrimidine] and F[C@@H]1CCN(CCOCC2CCN(c3ncc4c(-c5ccccc5)csc4n3)CC2)C1 [Example 151] cannot be ordered by IC50: less than 500 nM for the first, less than 500 nM for the second.

CN(C)C(=O)c1sc2ncnc(N3CCC(COCCN4CCCC4)CC3)c2c1-c1cccc(F)c1 [Example 138] and FC(F)(F)Oc1ccccc1-c1csc2ncnc(N3C4CCC3CC(NC3CCC3)C4)c12 (stereo not shown) [Example 341] cannot be ordered by IC50: less than 500 nM for the first, less than 500 nM for the second.

Cc1sc2ncnc(N3CCC(CNCCC4CCCN4C)CC3)c2c1C (stereo not shown) [Example 220] and CN1CCCC1CCNCC1CCN(c2ncnc3scc(-c4ccccc4)c23)C1 (stereo not shown) [Example 204] cannot be ordered by IC50: less than 500 nM for the first, less than 500 nM for the second.

First: CN1CCN(c2nc(N3CCC(CN(C)C4CCN(C)C4)CC3)c3c(-c4ccccc4)csc3n2)CC1 (stereo not shown) [Example 111]
Second: CNC(=O)CN(CC1CCN(c2ncnc3scc(-c4ccccc4)c23)CC1)C1CCC1 [Example 252, 2-[cyclobutyl-[[1-(5-phenylthieno[2,3-d]pyrimidin-4-yl)-4-piperidyl]methyl]amino]-N-methyl-acetamide]
The IC50 of the first is lower: less than 500 nM for the first, 500 to 3000 nM for the second.

FC(F)(F)C1CCCN(CC2CCN(c3ncnc4scc(-c5ccccc5)c34)CC2)C1 (stereo not shown) [Example 212] and c1ccc(-c2csc3ncnc(N4CCCC(OCCN5CCCC5)C4)c23)cc1 (stereo not shown) [Example 272] cannot be ordered by IC50: less than 500 nM for the first, less than 500 nM for the second.

First: NC(=O)C1CCN(c2nc(N3CCC(COCCN4CCCC4)CC3)nc3scc(-c4ccccc4)c23)C1 (stereo not shown) [Example 274]
Second: F[C@H]1CCN(CC2CCN(c3ncnc4scc(-c5ccccc5)c34)CC2)C1 [Example 92, 4-[4-[[(3S)-3-fluoropyrrolidin-1-yl]methyl]-1-piperidyl]-5-phenyl-thieno[2,3-d]pyrimidine]
The IC50 of the first is lower: less than 500 nM for the first, 500 to 3000 nM for the second.

CC1CN(CC2CCN(c3ncnc4scc(C5CCCCC5)c34)CC2)CC(C)O1 (stereo not shown) [Example 197] and CC(C)NC(=O)c1sc2ncnc(N3C4CCC3CC(N3CCCC3)C4)c2c1-c1ccccc1 (stereo not shown) [Example 354] cannot be ordered by IC50: less than 500 nM for the first, less than 500 nM for the second.

COCCNCC1CCN(c2nc(N3CCC(COC)CC3)c3c(-c4ccccc4)csc3n2)CC1 [Example 192] and CC(C)NCC1CCN(c2ncnc3scc(-c4ccccc4)c23)CC1 [Example 187] cannot be ordered by IC50: less than 500 nM for the first, less than 500 nM for the second.

FC(F)(F)C1CCN(CC2CCN(c3ncnc4scc(-c5ccccc5)c34)CC2)CC1 [Example 99, 5-phenyl-4-[4-[[4-(trifluoromethyl)-1-piperidyl]methyl]-1-piperidyl]thieno[2,3-d]pyrimidine] and CN1CCN(c2nc(N3CCC(CNC4(CO)CCCC4)CC3)c3c(-c4ccccc4)csc3n2)CC1 [Example 113] fall in the same range of IC50: 500 to 3000 nM for the first, 500 to 3000 nM for the second.

CC(=O)N1CCN(CCOCC2CCN(c3ncnc4scc(-c5ccccc5)c34)CC2)CC1 [Example 261] and c1ccc(-c2csc3ncnc(N4CCC(COC5CCC5)CC4)c23)cc1 [Example 9, 4-[4-(cyclobutoxymethyl)-1-piperidyl]-5-phenyl-thieno[2,3-d]pyrimidine] cannot be ordered by IC50: less than 500 nM for the first, less than 500 nM for the second.

First: CC(C)(C)OC(=O)N1CCCC1CCNCC1CCN(c2ncnc3scc(-c4ccccc4)c23)CC1 (stereo not shown) [Example 82, tert-butyl 2-[2-[[1-(5-phenylthieno[2,3-d]pyrimidin-4-yl)-4-piperidyl]methylamino]ethyl]pyrrolidine-1-carboxylate]
Second: CNC(=O)c1sc2ncnc(N3CCC(CN(C)C4CCN(C)C4)CC3)c2c1-c1ccccc1 (stereo not shown) [Example 131]
The IC50 of the first is lower: less than 500 nM for the first, 3000 to 10000 nM for the second.

NC(=O)C1CCN(CCOCC2CCN(c3ncc4c(-c5ccccc5)csc4n3)CC2)C1 (stereo not shown) [Example 153] and CN(C)CCOCC1CCN(c2nc(N3CCC(C(N)=O)C3)nc3scc(-c4ccccc4)c23)CC1 (stereo not shown) [Example 14, 1-[4-[4-(2-dimethylaminoethyloxymethyl)-1-piperidyl]-5-phenyl-thieno[2,3-d]pyrimidin-2-yl]pyrrolidine-3-carboxamide] cannot be ordered by IC50: less than 500 nM for the first, less than 500 nM for the second.

First: OCC(Cc1ccccc1)NCC1CCN(c2ncnc3scc(-c4ccccc4)c23)CC1 (stereo not shown) [Example 57, 3-phenyl-2-[[1-(5-phenylthieno[2,3-d]pyrimidin-4-yl)-4-piperidyl]methylamino]propan-1-ol]
Second: N-methyl-5-phenyl-thieno[2,3-d]pyrimidine-6-carboxamide [Example 343]
The IC50 of the first is lower: less than 500 nM for the first, 500 to 3000 nM for the second. The first is the more potent here.

COCC1CCN(c2nc(OC3CC4CC3CN4)nc3scc(-c4ccccc4)c23)CC1 (stereo not shown) [Example 307] and COCC1CCN(c2nc(N3CCN(C)CC3)nc3scc(-c4ccccc4)c23)CC1 [Example 174] cannot be ordered by IC50: less than 500 nM for the first, less than 500 nM for the second.

First: c1ccc(CNc2sc3ncnc(N4CCC(COCCN5CCCC5)CC4)c3c2-c2ccccc2)cc1 [Example 168, N-benzyl-5-phenyl-4-[4-(2-pyrrolidin-1-ylethoxymethyl)-1-piperidyl]thieno[2,3-d]pyrimidin-6-amine]
Second: OCC1CCN(CC2CCN(c3ncnc4scc(-c5ccccc5)c34)CC2)C1 (stereo not shown) [Example 95, [1-[[1-(5-phenylthieno[2,3-d]pyrimidin-4-yl)-4-piperidyl]methyl]pyrrolidin-3-yl]methanol]
The IC50 of the first is lower: less than 500 nM for the first, 500 to 3000 nM for the second. The first is the more potent here.

“5-phenyl-thieno[2,3-d]pyrimidine-2-carbonitrile [Example 338]” and CN(C)C1CCN(C2CCN(c3ncnc4scc(-c5ccccc5)c34)CC2)CC1 [Example 222] cannot be ordered by IC50: less than 500 nM for the first, less than 500 nM for the second.

First: CN1CCCC1CCOCC1CCN(c2nc(N3CCC(C(N)=O)C3)nc3scc(-c4ccccc4)c23)CC1 (stereo not shown) [Example 255]
Second: CN1CCN(c2nc(N3CCC(CN(CCO)CCO)CC3)c3c(-c4ccccc4)csc3n2)CC1 [Example 107]
The IC50 of the first is lower: less than 500 nM for the first, 500 to 3000 nM for the second.

CN(C)[C@@H]1CCN(CC2CCN(c3nc(N4CCC(C(N)=O)C4)nc4scc(-c5ccccc5)c34)CC2)C1 (stereo partly shown) [Example 236] and c1ccc(-c2csc3nc(N4CCC(COCCN5CCCC5)CC4)ncc23)cc1 [Example 148, 5-phenyl-2-[4-(2-pyrrolidin-1-ylethoxymethyl)-1-piperidyl]thieno[2,3-d]pyrimidine] cannot be ordered by IC50: less than 500 nM for the first, less than 500 nM for the second.
